From US5532229A, “Topical administration of vitamin D to mammals” (priority 1994, dated 1996)

How the values were obtained:
[1] = Experiment 1: serum radioactivity after one administration of radiolabelled vitamin D3 (intracardiac, gastric, dermal); type: in vivo, Wistar rats
Source text: Each point is the mean of 3-6 rats;
A comparison of serum radioactivity after one administration of radiolabelled vitamin D3 via the skin or gut, compared to intravascular injection.
The protocols and procedures used in this work were approved beforehand by an animal-care committee at the University of Toronto. Wistar rats, 250-g weight and fed normal diet, were divided into three groups of six, and each rat was given 400,000 cpm of […] (57 mCi/mmol, Amersham, UK). One group was given the [^14 C]-vitamin D3 by intracardiac injection; one group was given the tracer through an infant-feeding tube, directly into the stomach; and one group received the dose by application in 50 μL ethanol to a 2×2 cm patch of shaved skin on the lower back. Blood was taken by bleeding 0.25 mL from the tail, from three rats at a time, for each time indicated in the graph, except for the final sample at 3 wk, which is from all rats at the time of killing with an anesthetic overdose. The serum was counted in a Beckman LS6800 beta-counter and results are corrected for background, sample volume, and rat weight.

[2] = Experiment 3: serum 25(OH)D3 after 6 weeks of vitamin D3 nutrition; type: in vivo, Male Wistar rats
Method: Male, Wistar rats were obtained at 120-130 g, and placed on a 0.01% calcium, 0.7% phosphate diet that was vitamin D deficient (Teklad Test Diets, Madison, WI) this was for one week to help deplete vitamin D stores. For the next three weeks the rats were fed the vitamin D-deficient diet, but with normal, 0.5%, calcium. Starting with these 3 weeks, the rats were divided into four vitamin D3 -treatment groups, initially, nine rats per group: group a) supplemented once weekly with 0.6 μg vitamin D3 (average dose, 0.08 μg/day); group b) supplemented once every second day with vitamin D3 to provide 2 nmol/day, i.e., each dose was 4 nmol of vitamin D3; group c) supplemented once every second day with vitamin D3 to provide 8 μg/day. The preceding groups all received the vitamin D3 through an infant-feeding tube inserted through the mouth into the stomach. One group, d), received its vitamin D3 in the ethanol applied onto a shaved 2 cm×2 cm patch of skin on the back, this was done every second day to provide vitamin D3 at 8 μg/day. The volume of each dose of vitamin D3 given was adjusted so that the stated doses are per 250 g body weight. […]
(§1) Biochemical measurements. 1,25(OH)2 D3 in serum was measured by calf-thymus receptor-binding assay after initial purification of 1,25(OH)2 D3 with C18-OH cartridges (5). For the serum volumes that were minimal, serum was measured out in 50 μL increments, and the final result was adjusted for the volume of sample analyzed. […] The material eluting as 1,25(OH)2 D3 was evaporated and redissolved in acetonitrile: water for further purification with C18-OH cartridges and quantitation by thymus receptor assay, as described for serum. Renal 24-hydroxylase was measured by incubating mitochondria with [^3 H]-25(OH)D3 as substrate (Vieth and Fraser, J Biol Chem. 254:12455-12460;1979). […]

[3] = Experiment 3: vitamin D-binding capacity of serum (specific uptake of [3H]-25(OH)D3); type: in vivo, rat; conditions: 6 weeks
Method: Male, Wistar rats were obtained at 120-130 g, and placed on a 0.01% calcium, 0.7% phosphate diet that was vitamin D deficient (Teklad Test Diets, Madison, WI) this was for one week to help deplete vitamin D stores. For the next three weeks the rats were fed the vitamin D-deficient diet, but with normal, 0.5%, calcium. Starting with these 3 weeks, the rats were divided into four vitamin D3 -treatment groups, initially, nine rats per group: group a) supplemented once weekly with 0.6 μg vitamin D3 (average dose, 0.08 μg/day); group b) supplemented once every second day with vitamin D3 to provide 2 nmol/day, i.e., each dose was 4 nmol of vitamin D3; group c) supplemented once every second day with vitamin D3 to provide 8 μg/day. The preceding groups all received the vitamin D3 through an infant-feeding tube inserted through the mouth into the stomach. One group, d), received its vitamin D3 in the ethanol applied onto a shaved 2 cm×2 cm patch of skin on the back, this was done every second day to provide vitamin D3 at 8 μg/day. The volume of each dose of vitamin D3 given was adjusted so that the stated doses are per 250 g body weight. Over a second 3-week period while maintaining the described vitamin D3 dosing regimens, diet calcium content was changed weekly and blood sampling was started (that is, changes in calcium and sampling was from weeks 4 to 6, inclusive, of receiving the appropriate vitamin D3 supplement). Diet calcium was first dropped to 0.01% then raised to 1.5% and finally dropped again to 0.01%. For each week of dietary calcium manipulation, blood was obtained at day zero (the day of but just prior to the change in calcium), and days 1, 3, and 7 after the change. During the first week, 0.5 mL of blood was taken on the first two of these days and anticoagulated with heparin, the cells were isolated and resuspended in normal rat plasma and reinjected into the femoral vein. […] For the subsequent samplings, only 0.2-0.3 mL of blood was taken by bleeding from the tail into precalibrated microcentrifuge tubes. […]
as §1

[4] = system: 24-hydroxylase; test: Experiment 3: 24-hydroxylase in renal mitochondria; type: in vivo, rat; conditions: for Renal mitochondria 24-hydroxylase: 6 weeks
Method: Male, Wistar rats were obtained at 120-130 g, and placed on a 0.01% calcium, 0.7% phosphate diet that was vitamin D deficient (Teklad Test Diets, Madison, WI) this was for one week to help deplete vitamin D stores. For the next three weeks the rats were fed the vitamin D-deficient diet, but with normal, 0.5%, calcium. Starting with these 3 weeks, the rats were divided into four vitamin D3 -treatment groups, initially, nine rats per group: group a) supplemented once weekly with 0.6 μg vitamin D3 (average dose, 0.08 μg/day); group b) supplemented once every second day with vitamin D3 to provide 2 nmol/day, i.e., each dose was 4 nmol of vitamin D3; group c) supplemented once every second day with vitamin D3 to provide 8 μg/day. The preceding groups all received the vitamin D3 through an infant-feeding tube inserted through the mouth into the stomach. One group, d), received its vitamin D3 in the ethanol applied onto a shaved 2 cm×2 cm patch of skin on the back, this was done every second day to provide vitamin D3 at 8 μg/day. The volume of each dose of vitamin D3 given was adjusted so that the stated doses are per 250 g body weight. Over a second 3-week period while maintaining the described vitamin D3 dosing regimens, diet calcium content was changed weekly and blood sampling was started (that is, changes in calcium and sampling was from weeks 4 to 6, inclusive, of receiving the appropriate vitamin D3 supplement). Diet calcium was first dropped to 0.01% then raised to 1.5% and finally dropped again to 0.01%. For each week of dietary calcium manipulation, blood was obtained at day zero (the day of but just prior to the change in calcium), and days 1, 3, and 7 after the change. During the first week, 0.5 mL of blood was taken on the first two of these days and anticoagulated with heparin, the cells were isolated and resuspended in normal rat plasma and reinjected into the femoral vein. […] For the subsequent samplings, only 0.2-0.3 mL of blood was taken by bleeding from the tail into precalibrated microcentrifuge tubes. In this way, the bleeds prior to sacrifice removed a net total of less than 2 mL of blood, that is, less than or equal to 10% of the blood volume. Samples of daytime urine was collected into microfuge tubes that were fastened to the cones of metabolic collection funnels designed to hang under the wire cages. The cages and cones were rinsed with 0.1 mol/L hydrochloric acid prior to each collection. To eliminate contamination of the urine with diet, stool or water, the rats were placed into these separate cages only during the urine-collection period, until about 1 mL urine was present in the microfuge tube, this was typically within 5 min to one hour.
Biochemical measurements. 1,25(OH)2 D3 in serum was measured by calf-thymus receptor-binding assay after initial purification of 1,25(OH)2 D3 with C18-OH cartridges (5). For the serum volumes that were minimal, serum was measured out in 50 μL increments, and the final result was adjusted for the volume of sample analyzed. To measure 1α-hydroxylase in renal mitochondria, the incubation was as described previously, except the substrate was 20 μmol/L nonradioactive 25(OH)D3. The assay was stopped by addition of 2.5 mL methanol. To monitor recovery of 1,25 (OH)2 D3, 2000 cpm of [^3 H]--1,25(OH)2 D3 were added in 50 μL ethanol prior to further extraction with two additions of 1.25 mL methylene chloride. The methylene chloride layer was taken and evaporated to dryness, redissolved in hexane, isopropanol, methanol (90:9: 1) for purification by HPLC, Zorbax-Sil column. The material eluting as 1,25(OH)2 D3 was evaporated and redissolved in acetonitrile: water for further purification with C18-OH cartridges and quantitation by thymus receptor assay, as described for serum. Renal 24-hydroxylase was measured by incubating mitochondria with [^3 H]-25(OH)D3 as substrate (Vieth and Fraser, J Biol Chem. 254:12455-12460;1979). […]

[5] = Experiment 4: urinary calcium to creatinine ratio after gastric or dermal vitamin D3; type: in vivo, rats
Method: Each point represents the mean ±SEM of 7 normal, 250-g rats.
Toxicity: Short-term responses to increasing doses of vitamin D3 given dermally or by gastric tube.
To compare the efficacy of increasing doses of vitamin D3 in the short term. A fatal oral vitamin D3 dose is 14 days of 2600 μg/day (Sheppard RM and DeLuca HF, Arch Biochem Biophys 1980; 202: 43-55). The present experiment was designed to compare effects of doses up to this level, given by gastric tube or dermally.

[6] = generated by ultraviolet exposure, bound to DBP, experimental subjects; cited from earlier work

Compound: C=C1CC[C@H](O)C/C1=C/C=C1\CCC[C@]2(C)[C@@H]([C@H](C)CCCC(C)C)CC[C@@H]12 [vitamin D3]
- difference in serum radioactivity between dermal and oral groups ([1]; 3 wk): not statistically significant
- vitamin D3 delivered into the blood compared to direct injection ([1]; dermal and gastric): less than half
- rate of uptake into the circulation from the skin vs gut ([1]; one tracer dose, rats): more slowly than from the gut
- radioactivity in kidney, liver, and adipose tissues ([1]; radioactive vitamin D3): paralleled to the serum levels
- effectiveness of dermal vs oral route in raising 25(OH)D3 ([2]; 20 nmol/250 g/day): 85%
- serum 25(OH)D3 ([2]; dermal 8 μg/day): 127 ± 4 nmol/L
- serum 25(OH)D3 ([2]; gastric 8 μg/day): 148 ± 10 nmol/L
- Binding Capacity for 25(OH)D3 ([3]; 0.08 μg/day diet): 7.1 µmol/L
- Binding Capacity for 25(OH)D3 ([3]; 0.8 μg/day G1 (gastric)): 6.93 µmol/L
- Binding Capacity for 25(OH)D3 ([3]; 8 μg/day G1 (gastric)): 7.13 µmol/L
- Binding Capacity for 25(OH)D3 ([3]; 8 μg/day dermal): 7.96 µmol/L
- difference between the two routes in activities of renal enzymes (24-hydroxylase) ([4]; 20 nmol/250 g/day): no significant difference between the two routes
- Renal mitochondria 24-hydroxylase ([4]; 0.08 μg/day diet): 1.34 pmol/mg/mi
- Renal mitochondria 24-hydroxylase ([4]; 0.8 μg/day G1 (gastric)): 3.67 pmol/mg/mi
- Renal mitochondria 24-hydroxylase ([4]; 8 μg/day G1 (gastric)): 8.88 pmol/mg/mi
- Renal mitochondria 24-hydroxylase ([4]; 8 μg/day dermal): 6.26 pmol/mg/mi
- 24-hydroxylase in kidney ([4]; 8 μg/day, gastric and dermal, vs groups with less vitamin D3): increased 24-hydroxylase in kidney
- increase in calcium in the urine ([5]; highest dermal dose): 2.5 -fold
- increase in calcium in the urine ([5]; highest gastric dose): 6 -fold
- persistence in circulation [6]: circulate unchanged for a prolonged time
